According to ChEMBL document CHEMBL1201862, “PubChem BioAssay data set” (2004):
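Method: 48-hour compound exposure of cells in 96-well plates, five concentrations, linear interpolation of endpoints. Here, GI50 denotes the concentration required for 50% inhibition of growth.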 Active and inactive are the calls of the source. Rule as the data show it: active = GI50 up to about 1.1 µM and inactive = higher.

How the values were obtained:
Assay in all cases: NCI anticancer screen, dose series, 48 h
[1] = tested on: 786-0
[2] = tested on: A498
[3] = tested on: A549
[4] = tested on: ACHN
[5] = tested on: BT-549
[6] = tested on: CCRF-CEM
[7] = tested on: COLO 205
[8] = tested on: DU-145
[9] = tested on: EKVX
[10] = tested on: HCC 2998
[11] = tested on: HCT-116
[12] = tested on: HCT-15
[13] = tested on: HL-60
[14] = tested on: HOP-62
[15] = tested on: HOP-92
[16] = tested on: HT-29
[17] = tested on: Hs-578T
[18] = tested on: IGROV-1
[19] = tested on: K562
[20] = tested on: KM12
[21] = tested on: M14
[22] = tested on: MCF7
[23] = tested on: MDA-MB-231
[24] = tested on: MDA-MB-435
[25] = tested on: MDA-N
[26] = tested on: MOLT-4
[27] = tested on: Malme-3M
[28] = tested on: NCI-H226
[29] = tested on: NCI-H23
[30] = tested on: NCI-H460
[31] = tested on: NCI-H522
[32] = tested on: NCI/ADR-RES
[33] = tested on: OVCAR-3
[34] = tested on: OVCAR-4
[35] = tested on: OVCAR-5
[36] = tested on: OVCAR-8
[37] = tested on: PC-3
[38] = tested on: RPMI-8226
[39] = tested on: RXF 393
[40] = tested on: SF-268
[41] = tested on: SF-295
[42] = tested on: SF-539
[43] = tested on: SK-MEL-28
[44] = tested on: SK-MEL-5
[45] = tested on: SK-OV-3
[46] = tested on: SN12C
[47] = tested on: SNB-19
[48] = tested on: SNB-75
[49] = tested on: SW-620
[50] = tested on: T47D
[51] = tested on: TK-10
[52] = tested on: U-251
[53] = tested on: UACC-257
[54] = tested on: UACC-62
[55] = tested on: UO-31
[56] = tested on: CAKI-1
[57] = tested on: SK-MEL-2

Measured: GI50

COC1=CC(=O)c2c(O)ccc(O)c2C1=O
active: [21] 0.689 µM | [24] 0.659 µM | [25] 0.7 µM | [27] 0.0607 µM | [44] 0.851 µM
2.4 µM: [12]
inactive: [1] 14.6 µM | [2] 17.8 µM | [3] 1.98 µM | [4] 16.5 µM | [5] 2.44 µM | [6] 8.57 µM | [7] 1.5 µM | [8] 1.78 µM | [9] 20.2 µM | [10] 4.49 µM | [11] 4.6 µM | [13] 3.77 µM | [14] 2.19 µM | [15] 18.6 µM | [16] 1.72 µM | [17] 6.4 µM | [18] 18.1 µM | [19] 6.68 µM | [20] 6.93 µM | [22] 2.82 µM | [23] 3.12 µM | [26] 13.8 µM | [28] 21.6 µM | [29] 2.64 µM | [30] 5.04 µM | [31] 11.5 µM | [32] 19.8 µM | [33] 2.18 µM | [34] 13.6 µM | [35] 18.4 µM | [36] 21.4 µM | [37] 18.5 µM | [38] 9.2 µM | [39] 16.6 µM | [40] 7.26 µM | [41] 2 µM | [42] 5.19 µM | [43] 1.92 µM | [45] 18.6 µM | [46] 2.65 µM | [47] 4.75 µM | [48] 1.91 µM | [49] 3.85 µM | [50] 18.1 µM | [51] 14.7 µM | [52] 13.1 µM | [53] 1.52 µM | [54] 1.92 µM | [55] 17.3 µM

CC1(C)OC(=O)C2(O1)C(=O)C1CCCCC12 (configuration not stated)
86.9 µM: [12]
inactive: [1] 35.6 µM | [2] 4.78 µM | [3] 26.9 µM | [4] > 100 µM | [5] 23.9 µM | [56] 10.2 µM | [6] 8.97 µM | [7] 20.1 µM | [8] > 100 µM | [9] 21 µM | [10] > 100 µM | [11] > 100 µM | [14] 62.8 µM | [16] > 100 µM | [17] 32.4 µM | [18] > 100 µM | [19] > 100 µM | [20] > 100 µM | [21] > 100 µM | [22] 5.75 µM | [23] 3.84 µM | [24] > 100 µM | [25] 30.9 µM | [26] > 100 µM | [27] 67.9 µM | [28] 45.4 µM | [29] > 100 µM | [31] 12 µM | [32] > 100 µM | [33] > 100 µM | [34] 9.73 µM | [35] 44.6 µM | [36] > 100 µM | [37] > 100 µM | [38] > 100 µM | [39] 4.89 µM | [40] > 100 µM | [41] > 100 µM | [43] > 100 µM | [57] > 100 µM | [44] > 100 µM | [45] 8.51 µM | [46] 3.63 µM | [47] 8.39 µM | [49] > 100 µM | [50] > 100 µM | [51] 70.5 µM | [52] 97.1 µM | [53] 40 µM | [54] 82.4 µM | [55] 82.2 µM
